In patent US8835466B2, “Synthesis and uses of pyroglutamic acid derivatives” (Prodimed, S.A., priority 2006, dated 2014):

How the values were obtained:
[1] = tested on: Ehrlich tumour cells (murine mammary adenocarcinoma); assay: Effect of isomers and BLAS on in vivo tumour growth, Ehrlich tumours (Example 9); design: species or system Balb/c mice; settings: for Inhibition of the in vivo growth of Ehrlich tumour cells, in words: 260 ng i.p. days 6, 7 and 14; for Tumour surface, overall values (Mean) / Tumour surface, overall values (Median) / Tumour volume, overall values (Mean) / Tumour volume, overall values (Median): 260 ng/mouse i.p. days 6, 7 and 14; for Differences in Ehrlich tumour growth rate vs. placebo, statistical significance p (Mann-Whitney U test): either in surface or volume
Source text: This assay was made in order to compare the effect of each stereoisomer on in vivo tumour growth in mice with the effect of the mixture of all of them challenged with Ehlrich tumours. The same products, equipment, reagents, doses, vehicle and route of administration as in example 8 were used.
Mice were inoculated with Ehrlich tumour cells. It was described as a murine mammary adenocarcinoma. Ehrlich tumour is a murine mammary carcinoma originally raised in an outbred mouse, and therefore it belongs to the so-called non-specific tumours (Subiza J L, Viñuela J E, Rodriguez R, Gil J, Figueredo M A, de la Concha. E G. Development of splenic natural suppressor (NS) cells in Ehrlich tumor bearing mice. Int J Cancer, 44:307 315; 1989). It may grow across histocompatibility barriers and therefore is not mouse strain specific (Carry P J, Prescott D M, Ogilvie G K. Resistance to Ehrlich ascites tumor in a strain of dystrophic mice. Cancer Res., 39:2139-2140; 1979).
Ehrlich cells were maintained in vitro by serial passages every 3-4 days. Cultures were performed with RPMI medium medium (RPMI, 10% foetal calf serum, 2 mM L-glutamine, non essential aminoacids, 1 mM sodium pyruvate, 20 mM HEPES, 80 μg/mL gentamycin; all of them were purchased from Sigma, St. Louis, Mo., USA) by seeding 5×10^6 cells onto 75 cm^2 culture flasks. Tumour cells collected from 48 hour cultures were used as source of cells for the studies described below.
Tumours were established by subcutaneous inoculation in the right hind flank. Mice (Balb/c) were inoculated with 0.2 mL containing 2×10^5 viable Ehrlich cells. The day of subcutaneous inoculation will be considered Day 0 of the test.
(§1) Mice were observed daily and the tumour size recorded twice a week. This was carried out by measuring two perpendicular diameters (L/W) with a calliper. These measures were used to obtain both tumour surface and volume: Tumour surface=L×W(mm^2) Tumour volume=L×W^2×½(mm^3)
(§2) Results were expressed as single values and/or as the mean±SD or median from each experimental group.
(§3) A case-control study was performed with treated and control mice in order to determine whether differences between BLAS or each diferent stereoisomer and administration of placebo were present. […] The U-test of Mann Withney was chosen for being one of the better known non-parametrical tests, anyway, results for this test are equivalent both to those of Wilcoxon's sum of ranges and Kruskal-Wallis two-groups test.

[2] = tested on: Renca cells (renal cell carcinoma); assay: Effect of isomers on in vivo tumour growth in mice challenged with Renca cells (Example 7); design: species or system Balb/c mice; settings: for Tumour surface, overall values (Mean) / Tumour surface, overall values (Median) / Tumour volume, overall values (Mean) / Tumour volume, overall values (Median): 260 ng/mouse i.p. days 6, 7, 14
Source text: This assay was made in order to check the effect of each stereoisomer on in vivo tumour growth in mice challenged with Renca cells. Their effect was compared with placebo. The stereoisomers assayed were:
Renca is a renal cell carcinoma originated in Balb/c mouse strain, and therefore syngeneic in mice with Balb/c genetic background [Melder R J et al., Cancer Immunol. Immunother., 2005, 54:535-547; Felluga B et al., 1969, J. Natl. Cancer Inst. 43:319-333]. Renca is considered a moderate immunogenic tumour and used as suitable model for testing immunointervention approaches [Salup R R, et al., 1992, The Journal of Urology, 147:1120-1123].
Renca cells (CLS, Eppelheim, Germany) were maintained in vitro by serial passages every 3-4 days. Cultures were performed with RPMI medium medium (RPMI, 10% foetal calf serum, 2 mM L-glutamine, non essential amino acids, 1 mM sodium pyruvate, 20 mM HEPES, 80 μg/mL gentamycin; all of them were purchased from Sigma, St. Louis, Mo., USA) by seeding 5×10^6 cells onto 75 cm^2 culture flasks. Tumour cells collected from 48 hour cultures upon trypsinization (Sigma, St. Louis, Mo., USA) were used as source of Renca cells for the studies described below.
Each isomer was tested at the dose levels of 260 ng administered on days 6, 7 and 14 after tumour inoculation.
The treatments were given by intraperitoneal route (i.p.). The volume inoculated was 0.2 mL/animal. This route was chosen because it is the one described in the original method [Pérez S, et al., 2003, Clinical Cancer Research. 9:5776-5785].
Tumours were established by subcutaneous inoculation in the right hind flank. Mice (Balb/c) were inoculated with 0.2 mL containing 10^5 viable Renca cells. The day of subcutaneous inoculation will be considered Day 0 of the test.
as §1, §2
as §3, with “isomers” for “BLAS or each diferent stereoisomer”
Due to the high dispersion of data, outlayers (animals beyond percentile 25 or above percentile 75 for tumour surface at day 25) were excluded of the study.

[3] = day 13 after tumour inoculation
[4] = day 16 after tumour inoculation
[5] = day 20 after tumour inoculation
[6] = day 23 after tumour inoculation
[7] = day 29 after tumour inoculation
[8] = day 31 after tumour inoculation
[9] = day 35 after tumour inoculation
[10] = day 38 after tumour inoculation
[11] = day 11 after tumour inoculation
[12] = day 14 after tumour inoculation

Br.N[C@]1(C[n+]2ccccc2)C[C@H](C(=O)O)NC1=O.[Br-] (single isomer, unassigned; isomer 4) [isomer 4, 3S,5R-1-(3-Amino-5-carboxy-2-oxopyrrolidin-3-ylmethyl)pyridinium bromide hidrobromide]
Inhibition of the in vivo growth of Ehrlich tumour cells, in words [1]: inhibit the in vivo growth | Tumour surface, overall values (Mean) ([1]; day 0 after tumour inoculation): 0 mm^2 | Tumour surface, overall values (Median) ([1]; day 0 after tumour inoculation): 0 mm^2 | Tumour volume, overall values (Mean) ([1]; day 0 after tumour inoculation): 0 mm^3 | Tumour volume, overall values (Median) ([1]; day 0 after tumour inoculation): 0 mm^3 | Tumour surface, overall values (Mean) ([1]; day 8 after tumour inoculation): 3.37 mm^2 | Tumour surface, overall values (Median) ([1]; day 8 after tumour inoculation): 0 mm^2 | Tumour volume, overall values (Mean) ([1]; day 8 after tumour inoculation): 5.94 mm^3 | Tumour volume, overall values (Median) ([1]; day 8 after tumour inoculation): 0 mm^3 | Tumour surface, overall values (Mean) [1, 3]: 12.44 mm^2 | Tumour surface, overall values (Median) [1, 3]: 12.5 mm^2 | Tumour volume, overall values (Mean) [1, 3]: 26.91 mm^3 | Tumour volume, overall values (Median) [1, 3]: 22.75 mm^3 | Tumour surface, overall values (Mean) [1, 4]: 20.19 mm^2 | Tumour surface, overall values (Median) [1, 4]: 18 mm^2 | Tumour volume, overall values (Mean) [1, 4]: 50.34 mm^3 | Tumour volume, overall values (Median) [1, 4]: 36 mm^3 | Tumour surface, overall values (Mean) [1, 5]: 31.31 mm^2 | Tumour surface, overall values (Median) [1, 5]: 27.5 mm^2 | Tumour volume, overall values (Mean) [1, 5]: 95.59 mm^3 | Tumour volume, overall values (Median) [1, 5]: 68.75 mm^3 | Tumour surface, overall values (Mean) [1, 6]: 43.06 mm^2 | Tumour surface, overall values (Median) [1, 6]: 39 mm^2 | Tumour volume, overall values (Mean) [1, 6]: 156.53 mm^3 | Tumour volume, overall values (Median) [1, 6]: 117 mm^3 | Tumour surface, overall values (Mean) [1, 7]: 52.94 mm^2 | Tumour surface, overall values (Median) [1, 7]: 45 mm^2 | Tumour volume, overall values (Mean) [1, 7]: 214.91 mm^3 | Tumour volume, overall values (Median) [1, 7]: 135 mm^3 | Tumour surface, overall values (Mean) [1, 8]: 63.12 mm^2 | Tumour surface, overall values (Median) [1, 8]: 48.5 mm^2 | Tumour volume, overall values (Mean) [1, 8]: 274.94 mm^3 | Tumour volume, overall values (Median) [1, 8]: 157.75 mm^3 | Tumour surface, overall values (Mean) [1, 9]: 76.31 mm^2 | Tumour surface, overall values (Median) [1, 9]: 52.5 mm^2 | Tumour volume, overall values (Mean) [1, 9]: 379.72 mm^3 | Tumour volume, overall values (Median) [1, 9]: 183.75 mm^3 | Tumour surface, overall values (Mean) [1, 10]: 91.56 mm^2 | Tumour surface, overall values (Median) [1, 10]: 68 mm^2 | Tumour volume, overall values (Mean) [1, 10]: 504.22 mm^3 | Tumour volume, overall values (Median) [1, 10]: 272 mm^3 | Differences in Ehrlich tumour growth rate vs. placebo, statistical significance p (Mann-Whitney U test) ([1]; all days scored after the day 8th): < 0.05 | Ehrlich tumour growth vs. placebo, tendency p ([1]; surface, day 35th): 0.061 | Ehrlich tumour growth vs. placebo, tendency p ([1]; surface, day 38th): 0.08 | Ehrlich tumour growth vs. placebo, tendency p ([1]; volume, days 35th and 38th (both of them)): 0.102 | Inhibition of the in vivo growth of the renal cell carcinoma (Renca), in words ([2]; 260 ng i.p. days 6, 7, 14): inhibit the in vivo growth | Inhibitory effect on Renca tumour growth compared among isomers, in words ([2]; 260 ng i.p. days 6, 7, 14): highest inhibitory effect | Tumour surface, overall values (Mean) ([2]; day 0 after tumour inoculation): 0 mm^2 | Tumour surface, overall values (Median) ([2]; day 0 after tumour inoculation): 0 mm^2 | Tumour volume, overall values (Mean) ([2]; day 0 after tumour inoculation): 0 mm^3 | Tumour volume, overall values (Median) ([2]; day 0 after tumour inoculation): 0 mm^3 | Tumour surface, overall values (Mean) [2, 11]: 0 mm^2 | Tumour surface, overall values (Median) [2, 11]: 0 mm^2 | Tumour volume, overall values (Mean) [2, 11]: 0 mm^3 | Tumour volume, overall values (Median) [2, 11]: 0 mm^3 | Tumour surface, overall values (Median) [2, 12]: 0 mm^2 | Tumour volume, overall values (Median) [2, 12]: 0 mm^3 | Tumour surface, overall values (Median) ([2]; day 18 after tumour inoculation): 9 mm^2 | Differences in Renca tumour growth rate vs. placebo, statistical significance p (Mann-Whitney U test) ([2]; either in surface or volume, all days scored after the day 14th): < 0.01

Br.N[C@@]1(C[n+]2ccccc2)C[C@@H](C(=O)O)NC1=O.[Br-] (single isomer, unassigned; isomer 1) [isomer 1, 3R,5S-1-(3-Amino-5-carboxy-2-oxopyrrolidin-3-ylmethyl)pyridinium bromide hidrobromide]
Inhibition of the in vivo growth of Ehrlich tumour cells, in words [1]: inhibit the in vivo growth | Tumour surface, overall values (Mean) ([1]; day 0 after tumour inoculation): 0 mm^2 | Tumour surface, overall values (Median) ([1]; day 0 after tumour inoculation): 0 mm^2 | Tumour volume, overall values (Mean) ([1]; day 0 after tumour inoculation): 0 mm^3 | Tumour volume, overall values (Median) ([1]; day 0 after tumour inoculation): 0 mm^3 | Tumour surface, overall values (Mean) ([1]; day 8 after tumour inoculation): 5.69 mm^2 | Tumour surface, overall values (Median) ([1]; day 8 after tumour inoculation): 2 mm^2 | Tumour volume, overall values (Mean) ([1]; day 8 after tumour inoculation): 9.91 mm^3 | Tumour volume, overall values (Median) ([1]; day 8 after tumour inoculation): 2 mm^3 | Tumour surface, overall values (Mean) [1, 3]: 13.69 mm^2 | Tumour surface, overall values (Median) [1, 3]: 16 mm^2 | Tumour volume, overall values (Mean) [1, 3]: 31.34 mm^3 | Tumour volume, overall values (Median) [1, 3]: 32 mm^3 | Tumour surface, overall values (Mean) [1, 4]: 20.875 mm^2 | Tumour surface, overall values (Median) [1, 4]: 20.5 mm^2 | Tumour volume, overall values (Mean) [1, 4]: 53.12 mm^3 | Tumour volume, overall values (Median) [1, 4]: 47.25 mm^3 | Tumour surface, overall values (Mean) [1, 5]: 32.37 mm^2 | Tumour surface, overall values (Median) [1, 5]: 27.5 mm^2 | Tumour volume, overall values (Mean) [1, 5]: 105.19 mm^3 | Tumour volume, overall values (Median) [1, 5]: 68.75 mm^3 | Tumour surface, overall values (Mean) [1, 6]: 42.12 mm^2 | Tumour surface, overall values (Median) [1, 6]: 39.5 mm^2 | Tumour volume, overall values (Mean) [1, 6]: 160.5 mm^3 | Tumour volume, overall values (Median) [1, 6]: 123.25 mm^3 | Tumour surface, overall values (Mean) [1, 7]: 50 mm^2 | Tumour surface, overall values (Median) [1, 7]: 39.5 mm^2 | Tumour volume, overall values (Mean) [1, 7]: 202.19 mm^3 | Tumour volume, overall values (Median) [1, 7]: 123.25 mm^3 | Tumour surface, overall values (Mean) [1, 8]: 57 mm^2 | Tumour surface, overall values (Median) [1, 8]: 46.5 mm^2 | Tumour volume, overall values (Mean) [1, 8]: 249.06 mm^3 | Tumour volume, overall values (Median) [1, 8]: 147.75 mm^3 | Tumour surface, overall values (Mean) [1, 9]: 68.87 mm^2 | Tumour surface, overall values (Median) [1, 9]: 52.5 mm^2 | Tumour volume, overall values (Mean) [1, 9]: 342.94 mm^3 | Tumour volume, overall values (Median) [1, 9]: 173.25 mm^3 | Tumour surface, overall values (Mean) [1, 10]: 78.81 mm^2 | Tumour surface, overall values (Median) [1, 10]: 53 mm^2 | Tumour volume, overall values (Mean) [1, 10]: 425.91 mm^3 | Tumour volume, overall values (Median) [1, 10]: 191 mm^3 | Differences in Ehrlich tumour growth rate vs. placebo, statistical significance p (Mann-Whitney U test) ([1]; all days scored after the day 13th): < 0.05 | Tumour surface, overall values (Mean) ([2]; day 0 after tumour inoculation): 0 mm^2 | Tumour surface, overall values (Median) ([2]; day 0 after tumour inoculation): 0 mm^2 | Tumour volume, overall values (Mean) ([2]; day 0 after tumour inoculation): 0 mm^3 | Tumour volume, overall values (Median) ([2]; day 0 after tumour inoculation): 0 mm^3 | Tumour surface, overall values (Median) [2, 11]: 0 mm^2 | Tumour volume, overall values (Median) [2, 11]: 0 mm^3
